Source: ChEMBL document CHEMBL1201862, “PubChem BioAssay data set” (2004)
Activity calls are given as the source filed them.

Tests used:
[1] = molecular target: T1, Calpain-2 catalytic subunit (Sus scrofa, UniProt P43367); assay: m-calpain protease blockers, concentration series – biochemical, fluorogenic peptide substrate, dose response (AID 1420); format: functional
T1 sequence (P43367 whole entry): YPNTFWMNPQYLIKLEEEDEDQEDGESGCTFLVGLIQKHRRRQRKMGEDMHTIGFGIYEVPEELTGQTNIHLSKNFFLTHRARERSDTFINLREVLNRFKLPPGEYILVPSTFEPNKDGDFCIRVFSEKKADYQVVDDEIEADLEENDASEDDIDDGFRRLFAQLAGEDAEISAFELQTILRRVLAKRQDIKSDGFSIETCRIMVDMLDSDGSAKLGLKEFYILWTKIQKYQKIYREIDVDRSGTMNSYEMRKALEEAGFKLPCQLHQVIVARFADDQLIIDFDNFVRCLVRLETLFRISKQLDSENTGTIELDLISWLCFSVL

[2] = molecular target: Small ubiquitin-related modifier 2 (Homo sapiens, UniProt P61956); assay: SUMO2 binding disruption by SUMO1 hits – biochemical, FRET, human SUMO2, uHTS hits, selectivity assay for SUMO1 interaction inhibitor project, dose response (AID 624384); format: functional; conditions: read-out: IC50_Mean
Chain of Small ubiquitin-related modifier 2 (P61956 whole entry): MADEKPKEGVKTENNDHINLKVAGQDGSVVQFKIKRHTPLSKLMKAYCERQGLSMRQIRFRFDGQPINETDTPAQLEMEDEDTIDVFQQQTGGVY

[3] = viability loss in THP-1 monocytes – THP-1 cells, cytotoxicity control for Vif-APOBEC3G degradation inhibitor project, dose response (AID 1117359); format: functional; conditions: THP-1
[4] = molecular target: Beta-galactosidase (Escherichia coli, UniProt Q8VNN2); assay: detection-enzyme interference by beta-gal modulators – biochemical, E. coli enzyme, set 3, artefact control for CCR6 antagonist project, dose response (AID 504712); format: functional
Chain of Beta-galactosidase (Q8VNN2 whole entry): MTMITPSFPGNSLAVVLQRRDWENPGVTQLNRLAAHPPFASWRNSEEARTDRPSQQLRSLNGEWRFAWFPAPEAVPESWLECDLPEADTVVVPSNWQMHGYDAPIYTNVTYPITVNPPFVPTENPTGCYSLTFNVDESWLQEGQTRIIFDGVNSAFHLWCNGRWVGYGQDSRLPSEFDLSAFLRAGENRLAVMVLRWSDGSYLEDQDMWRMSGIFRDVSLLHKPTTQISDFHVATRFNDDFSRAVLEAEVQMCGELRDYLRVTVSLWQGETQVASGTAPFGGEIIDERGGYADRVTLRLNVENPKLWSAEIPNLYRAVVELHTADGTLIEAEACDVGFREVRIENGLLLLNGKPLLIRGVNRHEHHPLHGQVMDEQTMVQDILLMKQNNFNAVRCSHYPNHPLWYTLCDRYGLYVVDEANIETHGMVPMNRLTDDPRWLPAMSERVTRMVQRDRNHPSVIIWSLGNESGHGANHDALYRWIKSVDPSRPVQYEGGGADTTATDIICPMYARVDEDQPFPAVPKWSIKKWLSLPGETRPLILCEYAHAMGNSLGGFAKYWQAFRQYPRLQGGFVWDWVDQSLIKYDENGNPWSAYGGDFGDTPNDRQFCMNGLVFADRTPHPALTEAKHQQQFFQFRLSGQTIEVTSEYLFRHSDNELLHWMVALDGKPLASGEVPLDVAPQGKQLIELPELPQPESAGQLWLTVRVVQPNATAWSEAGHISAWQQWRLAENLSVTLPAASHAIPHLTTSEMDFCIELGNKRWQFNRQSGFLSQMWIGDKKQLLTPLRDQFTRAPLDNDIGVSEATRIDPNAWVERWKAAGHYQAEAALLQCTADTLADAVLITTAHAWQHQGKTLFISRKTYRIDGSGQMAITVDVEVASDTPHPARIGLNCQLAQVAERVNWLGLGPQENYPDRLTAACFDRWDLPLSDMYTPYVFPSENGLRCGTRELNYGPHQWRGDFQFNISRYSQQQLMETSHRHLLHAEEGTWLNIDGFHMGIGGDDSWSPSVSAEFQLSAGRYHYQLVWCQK

[5] = molecular target: Caspase-9 (Homo sapiens, UniProt P55211); assay: inhibitors of purified CASP9 protease – biochemical, fluorescence, plate reader, cherry-picked samples, selectivity assay for caspase-6 inhibitor project, dose response (AID 743293)
Chain of Caspase-9 (P55211 1-315 limits assumed): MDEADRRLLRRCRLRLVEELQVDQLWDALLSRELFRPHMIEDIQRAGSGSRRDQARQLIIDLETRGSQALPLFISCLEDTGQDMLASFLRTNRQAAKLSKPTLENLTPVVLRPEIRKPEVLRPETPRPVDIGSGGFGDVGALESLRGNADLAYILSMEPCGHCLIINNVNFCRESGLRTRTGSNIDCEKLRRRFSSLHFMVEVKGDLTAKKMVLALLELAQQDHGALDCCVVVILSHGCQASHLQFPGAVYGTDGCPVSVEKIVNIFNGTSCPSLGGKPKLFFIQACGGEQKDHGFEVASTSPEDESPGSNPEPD
Chain of Caspase-9 (P55211 331-416 limits assumed): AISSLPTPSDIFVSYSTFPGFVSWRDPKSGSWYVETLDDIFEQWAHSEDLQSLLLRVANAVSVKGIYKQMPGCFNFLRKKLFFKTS

[6] = molecular target: Caspase-7 (Homo sapiens, UniProt P55210); assay: caspase-7 enzyme inhibition, selectivity check – biochemical, DEVD-R110 fluorescence, cherry-pick, selectivity assay for caspase-6 inhibitor project, dose response (AID 743295); format: functional
Chain of Caspase-7 (P55210 24-198 limits assumed): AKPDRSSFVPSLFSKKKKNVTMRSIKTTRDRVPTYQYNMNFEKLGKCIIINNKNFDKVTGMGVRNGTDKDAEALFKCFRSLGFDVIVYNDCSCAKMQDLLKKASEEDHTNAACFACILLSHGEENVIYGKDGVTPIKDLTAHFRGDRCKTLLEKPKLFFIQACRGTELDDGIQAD
Chain of Caspase-7 (P55210 207-303 limits assumed): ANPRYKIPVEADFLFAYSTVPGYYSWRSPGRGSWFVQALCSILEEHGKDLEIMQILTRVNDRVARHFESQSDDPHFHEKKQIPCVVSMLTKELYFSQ

[7] = molecular target: T2, Hexokinase HKDC1 (Homo sapiens, UniProt Q2TB90); assay: inhibition of HKDC1 glucose phosphorylation – biochemical, W721R variant, dose response (AID 504729); format: functional
T2 sequence (Q2TB90 whole entry): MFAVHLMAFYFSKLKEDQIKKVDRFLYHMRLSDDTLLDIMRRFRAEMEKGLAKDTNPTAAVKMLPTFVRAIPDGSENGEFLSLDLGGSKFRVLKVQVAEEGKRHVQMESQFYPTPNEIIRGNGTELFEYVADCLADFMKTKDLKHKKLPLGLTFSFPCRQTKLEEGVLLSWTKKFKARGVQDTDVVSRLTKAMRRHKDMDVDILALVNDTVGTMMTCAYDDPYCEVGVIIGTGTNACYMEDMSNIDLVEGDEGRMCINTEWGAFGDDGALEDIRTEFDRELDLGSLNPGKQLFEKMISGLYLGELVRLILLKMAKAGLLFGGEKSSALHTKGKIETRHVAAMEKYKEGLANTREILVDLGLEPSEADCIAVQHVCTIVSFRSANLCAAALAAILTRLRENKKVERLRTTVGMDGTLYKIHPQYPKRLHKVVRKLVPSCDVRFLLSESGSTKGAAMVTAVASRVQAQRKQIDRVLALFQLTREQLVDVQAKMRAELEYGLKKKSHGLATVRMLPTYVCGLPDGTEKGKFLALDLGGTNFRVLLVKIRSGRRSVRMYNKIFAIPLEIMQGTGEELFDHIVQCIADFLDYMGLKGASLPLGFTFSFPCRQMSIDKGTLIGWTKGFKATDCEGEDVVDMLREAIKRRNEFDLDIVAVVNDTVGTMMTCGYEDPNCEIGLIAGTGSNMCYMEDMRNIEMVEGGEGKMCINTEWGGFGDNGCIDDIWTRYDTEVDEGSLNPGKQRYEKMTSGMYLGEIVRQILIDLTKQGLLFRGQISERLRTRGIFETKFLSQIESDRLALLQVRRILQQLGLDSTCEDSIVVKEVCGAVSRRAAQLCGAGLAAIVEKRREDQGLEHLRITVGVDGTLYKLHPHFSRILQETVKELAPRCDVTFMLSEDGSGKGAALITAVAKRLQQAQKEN

[8] = test system: Streptococcus sp. 'group A'; assay: Streptococcus pyogenes SK(-)GAS viability under kanamycin – luminescence, BacTiterGlo, confirmation, counter-screen for streptokinase expression inhibitor project, dose response (AID 1900); format: functional, organism-based
[9] = molecular target: Peroxisome proliferator-activated receptor gamma/Nuclear receptor coactivator 3 (Homo sapiens, UniProt P37231); assay: TR-FRET dose response biochemical High Throughput Screening assay for agonists of the steroid receptor coactivator 3 (SRC-3) recruitment by the peroxisome proliferator-activated receptor gamma (PPAR gamma): non-selective agonists. [Related pubchem assays: 1301 (Confirmation screen.), 1048 (Primary screen.)]; format: functional
Chain of Peroxisome proliferator-activated receptor gamma/Nuclear receptor coactivator 3 (P37231 whole entry): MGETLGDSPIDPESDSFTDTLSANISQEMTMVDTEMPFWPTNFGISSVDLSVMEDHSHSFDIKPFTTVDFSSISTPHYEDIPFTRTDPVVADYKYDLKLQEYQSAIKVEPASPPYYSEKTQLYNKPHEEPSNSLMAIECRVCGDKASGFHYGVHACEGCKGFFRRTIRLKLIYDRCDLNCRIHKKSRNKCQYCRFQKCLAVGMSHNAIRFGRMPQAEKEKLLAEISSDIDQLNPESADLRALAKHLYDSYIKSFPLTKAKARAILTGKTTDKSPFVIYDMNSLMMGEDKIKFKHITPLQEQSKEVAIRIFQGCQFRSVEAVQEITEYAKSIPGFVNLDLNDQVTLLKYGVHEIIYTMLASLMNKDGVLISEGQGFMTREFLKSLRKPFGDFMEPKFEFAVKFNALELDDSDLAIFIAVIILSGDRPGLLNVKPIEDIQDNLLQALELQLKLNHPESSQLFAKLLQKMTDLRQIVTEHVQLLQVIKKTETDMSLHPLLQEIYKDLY
Chain of Peroxisome proliferator-activated receptor gamma/Nuclear receptor coactivator 3 (Q9Y6Q9 whole entry, further chain): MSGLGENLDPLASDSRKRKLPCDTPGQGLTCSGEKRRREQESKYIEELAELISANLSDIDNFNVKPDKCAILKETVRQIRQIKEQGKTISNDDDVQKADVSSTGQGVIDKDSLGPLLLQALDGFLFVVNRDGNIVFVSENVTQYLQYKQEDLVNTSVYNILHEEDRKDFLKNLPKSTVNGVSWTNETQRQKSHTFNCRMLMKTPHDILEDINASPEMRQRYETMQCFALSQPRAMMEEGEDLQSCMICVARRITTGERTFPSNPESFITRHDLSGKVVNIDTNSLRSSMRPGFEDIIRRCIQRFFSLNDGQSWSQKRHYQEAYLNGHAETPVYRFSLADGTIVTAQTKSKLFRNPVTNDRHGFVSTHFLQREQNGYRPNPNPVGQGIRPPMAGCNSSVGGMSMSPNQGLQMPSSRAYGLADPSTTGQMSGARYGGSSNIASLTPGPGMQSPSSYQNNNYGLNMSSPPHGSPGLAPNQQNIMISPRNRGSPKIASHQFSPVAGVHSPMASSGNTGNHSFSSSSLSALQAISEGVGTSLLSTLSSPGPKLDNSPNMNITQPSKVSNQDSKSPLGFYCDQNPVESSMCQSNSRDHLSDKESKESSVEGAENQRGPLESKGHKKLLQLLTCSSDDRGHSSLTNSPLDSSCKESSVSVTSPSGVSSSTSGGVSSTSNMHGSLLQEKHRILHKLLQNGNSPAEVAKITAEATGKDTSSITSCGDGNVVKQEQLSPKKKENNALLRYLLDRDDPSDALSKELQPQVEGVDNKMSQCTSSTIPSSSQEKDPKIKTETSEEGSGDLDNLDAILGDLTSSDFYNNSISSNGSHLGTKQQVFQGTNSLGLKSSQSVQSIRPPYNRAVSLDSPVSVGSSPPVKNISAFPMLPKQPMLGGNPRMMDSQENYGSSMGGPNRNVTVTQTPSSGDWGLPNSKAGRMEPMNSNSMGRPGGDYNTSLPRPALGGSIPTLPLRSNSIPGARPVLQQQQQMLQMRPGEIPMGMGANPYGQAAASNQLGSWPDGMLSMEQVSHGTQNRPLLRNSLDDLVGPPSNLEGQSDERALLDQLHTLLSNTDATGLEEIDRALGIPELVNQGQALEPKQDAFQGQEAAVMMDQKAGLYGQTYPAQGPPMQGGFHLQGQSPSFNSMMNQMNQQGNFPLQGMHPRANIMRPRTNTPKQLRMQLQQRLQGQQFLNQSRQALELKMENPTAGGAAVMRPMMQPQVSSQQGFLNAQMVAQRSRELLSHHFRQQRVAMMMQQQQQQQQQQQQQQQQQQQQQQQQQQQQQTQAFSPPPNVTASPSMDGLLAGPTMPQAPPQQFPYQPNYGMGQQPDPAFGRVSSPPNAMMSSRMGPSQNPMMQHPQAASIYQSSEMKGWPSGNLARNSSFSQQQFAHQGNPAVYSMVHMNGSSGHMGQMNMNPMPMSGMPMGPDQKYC

[10] = molecular target: T3, Mannose-6-phosphate isomerase (Homo sapiens, UniProt P34949); assay: MPI enzyme activity inhibition – biochemical, fluorescence intensity, coupled assay, primary screen (AID 1209)
T3 sequence (P34949 whole entry): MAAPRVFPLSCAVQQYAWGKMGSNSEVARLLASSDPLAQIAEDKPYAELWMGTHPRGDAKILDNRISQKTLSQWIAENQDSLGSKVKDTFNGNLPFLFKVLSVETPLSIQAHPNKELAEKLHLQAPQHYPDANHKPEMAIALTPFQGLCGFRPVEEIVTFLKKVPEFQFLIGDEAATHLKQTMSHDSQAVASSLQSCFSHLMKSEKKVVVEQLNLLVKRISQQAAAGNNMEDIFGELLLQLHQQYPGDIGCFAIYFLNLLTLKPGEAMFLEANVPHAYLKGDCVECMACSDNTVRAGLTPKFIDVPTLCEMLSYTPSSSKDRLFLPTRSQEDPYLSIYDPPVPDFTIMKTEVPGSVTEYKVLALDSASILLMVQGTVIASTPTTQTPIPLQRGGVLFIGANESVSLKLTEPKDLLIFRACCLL

[11] = molecular target: Protein-tyrosine kinase 2-beta (Homo sapiens, UniProt Q14289);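 note: potency of inhibitors of PYK2 kinase phosphorylation of poly-GT substrate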
Chain of Protein-tyrosine kinase 2-beta (Q14289 whole entry): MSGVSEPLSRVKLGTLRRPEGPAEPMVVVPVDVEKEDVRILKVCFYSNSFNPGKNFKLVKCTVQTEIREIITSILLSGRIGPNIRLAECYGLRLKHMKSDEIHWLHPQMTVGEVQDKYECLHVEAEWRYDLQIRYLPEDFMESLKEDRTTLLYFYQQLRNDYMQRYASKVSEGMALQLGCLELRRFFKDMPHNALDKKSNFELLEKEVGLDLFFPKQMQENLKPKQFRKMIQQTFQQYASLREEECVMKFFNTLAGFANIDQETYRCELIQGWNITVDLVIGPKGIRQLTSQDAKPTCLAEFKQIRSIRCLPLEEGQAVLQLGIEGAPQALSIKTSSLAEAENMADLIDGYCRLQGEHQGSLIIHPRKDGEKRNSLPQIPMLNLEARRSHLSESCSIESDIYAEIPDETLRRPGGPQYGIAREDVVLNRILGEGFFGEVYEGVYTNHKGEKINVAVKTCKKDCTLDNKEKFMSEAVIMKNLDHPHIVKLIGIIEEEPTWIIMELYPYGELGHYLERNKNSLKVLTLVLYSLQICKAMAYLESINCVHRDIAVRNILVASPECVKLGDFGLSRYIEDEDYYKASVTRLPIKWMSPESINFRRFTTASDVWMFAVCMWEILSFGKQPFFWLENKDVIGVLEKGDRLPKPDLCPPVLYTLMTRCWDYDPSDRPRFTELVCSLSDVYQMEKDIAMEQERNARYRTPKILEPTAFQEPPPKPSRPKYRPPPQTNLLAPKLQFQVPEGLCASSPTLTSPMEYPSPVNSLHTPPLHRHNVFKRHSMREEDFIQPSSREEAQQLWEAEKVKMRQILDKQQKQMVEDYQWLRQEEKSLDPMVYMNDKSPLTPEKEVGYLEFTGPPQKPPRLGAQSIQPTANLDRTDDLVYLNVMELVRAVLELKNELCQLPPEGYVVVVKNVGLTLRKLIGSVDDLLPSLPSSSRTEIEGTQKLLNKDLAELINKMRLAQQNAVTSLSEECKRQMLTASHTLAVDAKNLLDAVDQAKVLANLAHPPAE

[12] = general mammalian cell viability loss – inhibitor set, cherry-pick, set 2, cytotoxicity control for miR-122 modulator project, dose response (AID 720697); format: functional, cell-based
[13] = NIH3T3 cell viability loss – ATP luminescence, mouse fibroblasts, counter-screen, dose response (AID 2010); format: functional, cell-based;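 note: cells exposed to compound for about 90 hours before reading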
[14] = test system: HEK293; assay: HEK293T cell viability loss, resazurin readout – resazurin fluorescence, cytotoxicity control for NF-kB activator project, SAR follow-up (AID 493251); format: functional, cell-based
[15] = test system: Jurkat; assay: SAR Analysis of small molecule inhibitors of T-cell specific antigen receptor-induced NF-kB activation in a Jurkat cell line using a luminescence assay - Set 2. [Related pubchem assays (depositor defined):AID435003, AID435012, AID465]; format: functional, cell-based; conditions: Homo sapiens
[16] = test system: HEK293; assay: SAR Analysis of small molecule inhibitors of T-cell specific antigen receptor-induced NF-kB activation in a HEK-293T cell line using a luminescence assay. [Related pubchem assays (depositor defined):AID435003, AID435012, AID489026]; format: functional, cell-based; conditions: Homo sapiens

SMILES: COc1cc(-c2ccc(Nc3ccccc3C(=O)O)c(OC)c2)ccc1Nc1ccccc1C(=O)O
- IC50 [1]: 2.87 µM (not active)
- IC50 [2]: 3.91 µM (active)
- CC50 [3]: > 40 µM (active)

SMILES: COC(CNC(=O)c1ccc2c3c(onc13)-c1ccccc1C2=O)OC
- IC50 [4]: > 66.6 µM (inactive)

SMILES: COc1ccc(OC)c(Nc2cc3ccccc3c(O)n2)c1
- AC50 [5]: 10.1 µM (active)
- AC50 [6]: 5.9 µM (active)

SMILES: O=C(O)c1ccc(NC2=C/C(=N/S(=O)(=O)c3ccccc3)c3ccccc3C2=O)cc1
- IC50 [7]: 2.74 µM (active)

SMILES: Nc1ccc2c(c1)C(=O)C(=O)c1ccccc1-2
- EC50 [8]: 0.46 µM (active)
- EC50 [9]: > 79.4 µM (not active)
- IC50 [10]: > 50 µM (not active)
- IC50 [11]: > 69.5 µM (not active)
- AC50 [12]: 2.19 µM (active)

SMILES: CCCC(=O)NC(c1ccccc1OC)c1ccc2cccnc2c1O (configuration not stated)
- EC50 [13]: 1.55 µM (active)
- IC50 ([14]; Homo sapiens, HEK293): 29.6 µM (inactive)
- IC50 ([14]; hek293): 41.2 µM (inactive)
- IC50 [15]: 5.16 µM (active)
- IC50 [16]: 12.5 µM (active)
